# Molecular target: T1, glucokinase (GK) (Homo sapiens, UniProt P35557)
# T1 construct: I.D. No. 1 corresponds to residues 12-465 of glucokinase; made in house; host or cells: E. coli DH10b-T1r
# T1 sequence (P35557 with tags, fused parts or gaps isoform P35557-2): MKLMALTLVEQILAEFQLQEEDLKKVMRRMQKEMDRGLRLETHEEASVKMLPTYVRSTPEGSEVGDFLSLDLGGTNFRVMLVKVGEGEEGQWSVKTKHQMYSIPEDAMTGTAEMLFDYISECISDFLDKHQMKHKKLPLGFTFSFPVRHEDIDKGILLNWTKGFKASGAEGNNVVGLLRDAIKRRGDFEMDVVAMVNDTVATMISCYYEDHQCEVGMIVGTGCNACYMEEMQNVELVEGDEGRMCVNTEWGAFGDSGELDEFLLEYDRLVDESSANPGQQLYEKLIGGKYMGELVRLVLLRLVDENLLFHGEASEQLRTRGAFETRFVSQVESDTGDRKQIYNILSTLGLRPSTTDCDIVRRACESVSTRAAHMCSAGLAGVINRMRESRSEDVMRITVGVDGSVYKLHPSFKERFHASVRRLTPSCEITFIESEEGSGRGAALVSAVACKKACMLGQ
# Assay: enzymatic glucokinase activity assay (ATP consumption, KinaseGlo luminescence)
# Format: biochemical
# Details: recombinant GK residues 12-465; 5 μM ATP, 5 mM Glucose; Kact = concentration that displays 50% of the maximal increase in GK activity; read-out: pKact
# From the text: The activity of compounds as glucokinase activators may be assayed in vitro, in vivo or in a cell line. Provided below is an enzymatic glucokinase activity assay.
# Purified glucokinase may be obtained as follows. […] SEQ.
# The expression of recombinant glucokinase protein may be carried out by transformation and growth of DH10b-T1r E. coli cells incorporating the (pFLAG-CTC) plasmid in LB media. Protein expression can be induced in this system by the addition of IPTG to the culture medium.
# Recombinant protein may be isolated from cellular extracts by passage over Sepharose Q Fast Flow resin (Pharmacia). This partially purified GK extract may then be further purified by a second passage over Poros HQ 10 (Applied Biosystems). The purity of GK may be determined on denaturing SDS-PAGE gel. Purified GK may then be concentrated to a final concentration of 20.0 mg/ml. After flash freezing in liquid nitrogen, the proteins can be stored at −78° C. in a buffer containing 25 mM TRIS-HCl pH 7.6, 50 mM NaCl, and 0.5 mM TCEP.
# The activation properties of compounds for GK may be determined using a black 384-well-plate format under the following reaction conditions: 25 mM Hepes pH 7.2, 25 mM NaCl, 10 mM MgCl2, 0.01% Brij35, 1 mM DTT, 5 μM ATP, 5 mM Glucose 2% DMSO. The amount of ATP consumed may be determined quantitatively by addition of equal volume of luciferase reagent (luciferase+beetle luciferin—KinaseGlo Luminescent Kinase Assay kit from Promega). The luminescence intensity may be measured by using the Analyst HT from LJL Biosystems.
# The reaction mixture may then be incubated at room temperature for 60 min, and quenched and developed by addition of 10 μL of luciferase reagent. Luminescence intensities of the resulting reaction mixtures may be measured after a 10 min incubation at room temperature. The luminescence intensity may be measured by using the Analyst HT from LJL Biosystems.
# pKact values may be calculated by non-linear curve fitting of the compound concentrations and luminescence intensities to a standard inhibition/activation equation.
row,SMILES,EC50
1,"Cc1cc(S(=O)(=O)C2CCCC2)cc(=O)n1[C@H](CC1CCOCC1)C(=O)Nc1ncc(Cl)s1 [Example 37, (R)-N-(5-chlorothiazol-2-yl)-2-(4-(cyclopentylsulfonyl)-6-methyl-2-oxopyridin-1(2H)-yl)-3-(tetrahydro-2H-pyran-4-yl)propanamide]",1580 to 15800 nM
2,"Cc1cc(S(=O)(=O)C2CCCC2)cc(=O)n1[C@@H](CC1CCOCC1)C(=O)Nc1ncc(Cl)s1 [Example 38, (S)-N-(5-chlorothiazol-2-yl)-2-(4-(cyclopentylsulfonyl)-6-methyl-2-oxopyridin-1(2H)-yl)-3-(tetrahydro-2H-pyran-4-yl)propanamide]",< 1580 nM
3,"Cc1cc(S(=O)(=O)C2CCCC2)cc(=O)n1[C@H](CC1CCOCC1)C(=O)Nc1ncc(F)s1 [Example 39, (R)-2-(4-(cyclopentylsulfonyl)-6-methyl-2-oxopyridin-1(2H)-yl)-N-(5-fluorothiazol-2-yl)-3-(tetrahydro-2H-pyran-4-yl)propanamide]",> 15800 nM
4,"Cc1cc(S(=O)(=O)C2CCCC2)cc(=O)n1[C@@H](CC1CCOCC1)C(=O)Nc1ncc(F)s1 [Example 40, (S)-2-(4-(cyclopentylsulfonyl)-6-methyl-2-oxopyridin-1(2H)-yl)-N-(5-fluorothiazol-2-yl)-3-(tetrahydro-2H-pyran-4-yl)propanamide]",< 1580 nM
5,"O=C(Nc1ccc(Cl)cn1)[C@@H](CC1CCOCC1)n1ccc(S(=O)(=O)C2CCCC2)cc1=O [Example 41, (R)-N-(5-chloropyridin-2-yl)-2-(4-(cyclopentylsulfonyl)-2-oxopyridin-1(2H)-yl)-3-(tetrahydro-2H-pyran-4-yl)propanamide]",> 15800 nM
6,"O=C(Nc1ccc(Cl)cn1)[C@H](CC1CCOCC1)n1ccc(S(=O)(=O)C2CCCC2)cc1=O [Example 42, (S)-N-(5-chloropyridin-2-yl)-2-(4-(cyclopentylsulfonyl)-2-oxopyridin-1(2H)-yl)-3-(tetrahydro-2H-pyran-4-yl)propanamide]",< 1580 nM
7,"Cc1ccc(S(=O)(=O)c2cc(C)n(C(CC(C)(C)C)C(=O)Nc3ncc(F)s3)c(=O)c2)cc1 (stereo not shown) [Example 43, N-(5-fluorothiazol-2-yl)-4,4-dimethyl-2-(6-methyl-2-oxo-4-tosylpyridin-1(2H)-yl)pentanamide]",1580 to 15800 nM
8,"COC(=O)c1cnc(NC(=O)[C@H](CC2CCOCC2)n2ccc(S(=O)(=O)C3CCCC3)cc2=O)s1 [Example 45, (5)-methyl 2-(2-(4-(cyclopentylsulfonyl)-2-oxopyridin-1(2H)-yl)-3-(tetrahydro-2H-pyran-4-yl)propanamido)thiazole-5-carboxylate]",< 1580 nM
9,"NC(=O)c1ccc(NC(=O)[C@H](CC2CCOCC2)n2ccc(S(=O)(=O)C3CCCC3)cc2=O)nc1 [Example 46, (S)-6-(2-(4-(cyclopentylsulfonyl)-2-oxopyridin-1(2H)-yl)-3-(tetrahydro-2H-pyran-4-yl)propanamido)nicotinamide]",< 1580 nM
10,"NC(=O)c1ccc(NC(=O)[C@@H](CC2CCOCC2)n2ccc(S(=O)(=O)C3CCCC3)cc2=O)nc1 [Example 47, (R)-6-(2-(4-(cyclopentylsulfonyl)-2-oxopyridin-1(2H)-yl)-3-(tetrahydro-2H-pyran-4-yl)propanamido)nicotinamide]",> 15800 nM
11,"COc1ccc2nc(NC(=O)[C@@H](CC3CCOCC3)n3ccc(S(=O)(=O)C4CC4)cc3=O)sc2n1 [Example 48, (R)-2-(4-(cyclopropylsulfonyl)-2-oxopyridin-1(2H)-yl)-N-(5-methoxythiazolo[5,4-b]pyridin-2-yl)-3-(tetrahydro-2H-pyran-4-yl)propanamide]",1580 to 15800 nM
12,"COc1ccc2nc(NC(=O)[C@H](CC3CCOCC3)n3ccc(S(=O)(=O)C4CC4)cc3=O)sc2n1 [Example 49, (S)-2-(4-(cyclopropylsulfonyl)-2-oxopyridin-1(2H)-yl)-N-(5-methoxythiazolo[5,4-b]pyridin-2-yl)-3-(tetrahydro-2H-pyran-4-yl)propanamide]",< 1580 nM
13,"O=C(Nc1ncc(F)s1)C(CC1CCOCC1)n1ccc(S(=O)(=O)c2ccccn2)cc1=O (stereo not shown) [Example 50, N-(5-fluorothiazol-2-yl)-2-(2-oxo-4-(pyridin-2-ylsulfonyl)pyridin-1(2H)-yl)-3-(tetrahydro-2H-pyran-4-yl)propanamide]",< 1580 nM
14,"O=C(Nc1nc2cccnc2s1)[C@@H](CC1CCOCC1)n1ccc(S(=O)(=O)C2CC2)cc1=O [Example 51, (R)-2-(4-(cyclopropylsulfonyl)-2-oxopyridin-1(2H)-yl)-3-(tetrahydro-2H-pyran-4-yl)-N-(thiazolo[5,4-b]pyridin-2-yl)propanamide]",> 15800 nM
15,"O=C(Nc1nc2cccnc2s1)[C@H](CC1CCOCC1)n1ccc(S(=O)(=O)C2CC2)cc1=O [Example 52, (S)-2-(4-(cyclopropylsulfonyl)-2-oxopyridin-1(2H)-yl)-3-(tetrahydro-2H-pyran-4-yl)-N-(thiazolo[5,4-b]pyridin-2-yl)propanamide]",1580 to 15800 nM
16,"CS(=O)(=O)c1ccn(C(CC2CCOCC2)C(=O)Nc2ncc(CCC(=O)O)s2)c(=O)c1 (stereo not shown) [Example 53, 3-(2-(2-(4-(methylsulfonyl)-2-oxopyridin-1(2H)-yl)-3-(tetrahydro-2H-pyran-4-yl)propanamido)thiazol-5-yl)propanoic acid]",> 15800 nM
17,"Cc1occc1S(=O)(=O)c1cc(C)n(C(CC2CCCCC2)C(=O)Nc2ncc(Cl)s2)c(=O)c1 (stereo not shown) [Example 54, N-(5-chlorothiazol-2-yl)-3-cyclohexyl-2-(6-methyl-4-(2-methylfuran-3-ylsulfonyl)-2-oxopyridin-1(2H)-yl)propanamide]",< 1580 nM
18,"Cc1cnc(NC(=O)C(CC2CCOCC2)n2ccc(OCc3ccccc3)cc2=O)s1 (stereo not shown) [Example 55, 2-(4-(benzyloxy)-2-oxopyridin-1(2H)-yl)-N-(5-methylthiazol-2-yl)-3-(tetrahydro-2H-pyran-4-yl)propanamide]",1580 to 15800 nM
19,"N#Cc1cnc(NC(=O)[C@@H](CC2CCOCC2)n2ccc(S(=O)(=O)C3CCCC3)cc2=O)s1 [Example 56, (R)-N-(5-cyanothiazol-2-yl)-2-(4-(cyclopentylsulfonyl)-2-oxopyridin-1(2H)-yl)-3-(tetrahydro-2H-pyran-4-yl)propanamide]",> 15800 nM
20,"N#Cc1cnc(NC(=O)[C@H](CC2CCOCC2)n2ccc(S(=O)(=O)C3CCCC3)cc2=O)s1 [Example 57, (S)-N-(5-cyanothiazol-2-yl)-2-(4-(cyclopentylsulfonyl)-2-oxopyridin-1(2H)-yl)-3-(tetrahydro-2H-pyran-4-yl)propanamide]",1580 to 15800 nM
21,"COc1ccc2nc(NC(=O)[C@@H](CC3CCOCC3)n3ccc(S(=O)(=O)C4CCCC4)cc3=O)sc2n1 [Example 58, (R)-2-(4-(cyclopentylsulfonyl)-2-oxopyridin-1(2H)-yl)-N-(5-methoxythiazolo[5,4-b]pyridin-2-yl)-3-(tetrahydro-2H-pyran-4-yl)propanamide]",> 15800 nM
22,"COc1ccc2nc(NC(=O)[C@H](CC3CCOCC3)n3ccc(S(=O)(=O)C4CCCC4)cc3=O)sc2n1 [Example 59, (S)-2-(4-(cyclopentylsulfonyl)-2-oxopyridin-1(2H)-yl)-N-(5-methoxythiazolo[5,4-b]pyridin-2-yl)-3-(tetrahydro-2H-pyran-4-yl)propanamide]",< 1580 nM
23,"Cc1cc(S(=O)(=O)c2cccs2)cc(=O)n1C(CC1CCCCC1)C(=O)Nc1ncc(Cl)s1 (stereo not shown) [Example 60, N-(5-chlorothiazol-2-yl)-3-cyclohexyl-2-(6-methyl-2-oxo-4-(thiophen-2-ylsulfonyl)pyridin-1(2H)-yl)propanamide]",< 1580 nM
24,"Cc1cc(Br)cc(=O)n1[C@@H](CC1CCCCC1)C(=O)Nc1nccs1 [Example 61, (S)-2-(4-bromo-6-methyl-2-oxopyridin-1(2H)-yl)-3-cyclohexyl-N-(thiazol-2-yl)propanamide]",> 15800 nM
25,"COc1ccc2nc(NC(=O)[C@H](CC3CCOCC3)n3c(C)cc(S(=O)(=O)c4ccoc4C)cc3=O)sc2n1 [Example 62, (S)-N-(5-methoxythiazolo[5,4-b]pyridin-2-yl)-2-(6-methyl-4-(2-methylfuran-3-ylsulfonyl)-2-oxopyridin-1(2H)-yl)-3-(tetrahydro-2H-pyran-4-yl)propanamide]",1580 to 15800 nM
